Measured values taken from patent US9302999B2, “Substituted triazoles as herbicides” (E. I. DU PONT DE NEMOURS AND COMPANY, priority 2012, dated 2016).

Key:
Type in all cases: in vivo
[1] = system: barnyardgrass (Echinochloa crus-galli); assay: Test A pre-/postemergence: barnyardgrass
Summary of the method: (§1)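 Pre: directed soil spray after planting in loam + sand. Post: same formulation (non-phytotoxic solvent + surfactant) on 1–2-leaf plants, 2–10 cm. Greenhouse ~10 d; visual injury 0–100 vs untreated.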

[2] = system: crabgrass, large (large crabgrass, Digitaria sanguinalis); assay: Test A pre-/postemergence: crabgrass, large
Summary of the method: as §1

[3] = system: morningglory (Ipomoea spp.); assay: Test A pre-/postemergence: morningglory; details: Preemergence
Summary of the method: as §1

[4] = system: pigweed (Amaranthus retroflexus); assay: Test A pre-/postemergence: pigweed
Summary of the method: as §1

rice (Oryza sativa) = assay: Test B flooded paddy: rice; details: Flood; 250 g ai/ha; applied to paddy water at 2-leaf stage; visually evaluated after 13 to 15 days
Summary of the method: (§2)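 Plants were grown to the 2-leaf stage and pots flooded to 3 cm above soil. Compounds were applied directly into the paddy water, with depth kept for the test. After 13–15 days in greenhouse, response was rated visually against controls on a 0 (no effect) to 100 (complete control) scale.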

[5] = system: barnyardgrass (Echinochloa crus-galli); assay: Test B flooded paddy: barnyardgrass; details: Flood; 250 g ai/ha; applied to paddy water at 2-leaf stage; visually evaluated after 13 to 15 days
Summary of the method: as §2

[6] = system: blackgrass (Alopecurus myosuroides); assay: Test C pre-/postemergence: blackgrass
Summary of the method: (§3)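 Preemergence on seeds in loam/sand, postemergence on 2–18 cm (1–4-leaf) plants in peat-based medium; compounds in non-phytotoxic solvent with surfactant. After 13–15 days in greenhouse, visual rating versus controls, 0 (no effect) to 100 (complete control).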

[7] = system: lambsquarters (Chenopodium album); assay: Test C pre-/postemergence: lambsquarters
Summary of the method: as §3

[8] = system: ragweed (common ragweed, Ambrosia elation); assay: Test C pre-/postemergence: ragweed
Summary of the method: as §3

soybean (Glycine max) = assay: Test C pre-/postemergence: soybean
Summary of the method: as §3

[9] = Postemergence, 125 g ai/ha, 0 to 100 scale, 0 is no effect, 100 is complete control
[10] = Postemergence, 500 g ai/ha, 0 to 100 scale, 0 is no effect, 100 is complete control
[11] = Preemergence, 125 g ai/ha, 0 to 100 scale where 0 is no effect and 100 is complete control
[12] = Preemergence, 500 g ai/ha, 0 to 100 scale (0 no effect, 100 complete control)
[13] = 125 g ai/ha, 0 to 100 scale where 0 is no effect and 100 is complete control
[14] = 500 g ai/ha, 0 to 100 scale (0 no effect, 100 complete control)
[15] = Postemergence, 31 g ai/ha, scale 0 to 100 (0 no effect, 100 complete control)
[16] = Postemergence, 62 g ai/ha, scale 0 to 100 (0 no effect, 100 complete control)
[17] = Postemergence, 125 g ai/ha, scale 0 to 100, 0 no effect, 100 complete control
[18] = Postemergence, 250 g ai/ha, scale 0 to 100
[19] = Preemergence, 31 g ai/ha, scale 0 (no effect) to 100 (complete control)
[20] = Preemergence, 62 g ai/ha, scale of 0 to 100, 0 is no effect, 100 is complete control
[21] = Preemergence, 125 g ai/ha, scale 0 to 100, 0 no effect, 100 complete control
[22] = Preemergence, 250 g ai/ha, scale 0 to 100, 0 no effect, 100 complete control
[23] = Postemergence, 250 g ai/ha, scale 0 to 100 (0 no effect, 100 complete control)

## CCCc1nn(-c2ccc(F)cc2)nc1Oc1ccnc(C(F)(F)F)c1 [Compound 168]
[1]; [9]
  Plant response rating, Barnyardgrass: 90
[1]; [10]
  Barnyardgrass plant response rating: 90
[1]; [11]
  Plant response rating, Barnyardgrass: 90
[1]; [12]
  Plant response rating, Barnyardgrass: 100
[2]; [9]
  Plant response rating, Crabgrass, Large: 90
[2]; [10]
  Crabgrass, Large plant response rating: 90
[2]; [11]
  Plant response rating, Crabgrass, Large: 100
[2]; [12]
  Plant response rating, Crabgrass, Large: 100
[3]; [13]
  Plant response rating, Morningglory: 20
[3]; [14]
  Plant response rating, Morningglory: 50
[4]; [9]
  Plant response rating, Pigweed: 100
[4]; [10]
  Pigweed plant response rating: 100
[4]; [11]
  Plant response rating, Pigweed: 100
[4]; [12]
  Plant response rating, Pigweed: 100
Rice (Oryza sativa)
  Plant response rating, Rice (0 to 100 scale, 0 is no effect, 100 is complete control): 60
[5]
  Plant response rating, Barnyardgrass (0 to 100 scale, 0 is no effect, 100 is complete control): 80
[6]; [15]
  Plant response rating, Blackgrass: 45
[6]; [16]
  Plant response rating, Blackgrass: 45
[6]; [17]
  Plant response rating, Blackgrass: 80
[6]; [18]
  Plant response rating, Blackgrass: 80
[6]; [19]
  Plant response rating, Blackgrass: 90
[6]; [20]
  Plant response rating, Blackgrass: 90
[6]; [21]
  Plant response rating, Blackgrass: 95
[6]; [22]
  Plant response rating, Blackgrass: 98
[7]; [15]
  Plant response rating, Lambsquarters: 80
[7]; [16]
  Plant response rating, Lambsquarters: 95
[7]; [17]
  Plant response rating, Lambsquarters: 95
[7]; [23]
  Plant response rating, Lambsquarters: 95
[7]; [19]
  Plant response rating, Lambsquarters: 98
[7]; [20]
  Plant response rating, Lambsquarters: 98
[7]; [21]
  Plant response rating, Lambsquarters: 98
[7]; [22]
  Plant response rating, Lambsquarters: 98
[8]; [15]
  Plant response rating, Ragweed: 65
[8]; [16]
  Plant response rating, Ragweed: 65
[8]; [17]
  Plant response rating, Ragweed: 65
[8]; [23]
  Plant response rating, Ragweed: 80
[8]; [19]
  Plant response rating, Ragweed: 10
[8]; [20]
  Plant response rating, Ragweed: 30
[8]; [21]
  Plant response rating, Ragweed: 80
[8]; [22]
  Plant response rating, Ragweed: 80
Soybean (Glycine max); [15]
  Plant response rating, Soybean: 30
Soybean (Glycine max); [16]
  Plant response rating, Soybean: 35
Soybean (Glycine max); [17]
  Plant response rating, Soybean: 60
Soybean (Glycine max); [23]
  Plant response rating, Soybean: 60
Soybean (Glycine max); [19]
  Plant response rating, Soybean: 5
Soybean (Glycine max); [20]
  Plant response rating, Soybean: 10
Soybean (Glycine max); [21]
  Plant response rating, Soybean: 10
Soybean (Glycine max); [22]
  Plant response rating, Soybean: 35

## CCc1nn(-c2ccc(C(F)(F)F)cc2)nc1Oc1ccnc(C(F)(F)F)c1 [Compound 169]
[1]; [9]
  Plant response rating, Barnyardgrass: 80
[1]; [10]
  Barnyardgrass plant response rating: 90
[1]; [11]
  Plant response rating, Barnyardgrass: 80
[1]; [12]
  Plant response rating, Barnyardgrass: 90
[2]; [9]
  Plant response rating, Crabgrass, Large: 90
[2]; [10]
  Crabgrass, Large plant response rating: 90
[2]; [11]
  Plant response rating, Crabgrass, Large: 100
[2]; [12]
  Plant response rating, Crabgrass, Large: 100
[3]; [13]
  Plant response rating, Morningglory: 20
[3]; [14]
  Plant response rating, Morningglory: 40
[4]; [9]
  Plant response rating, Pigweed: 100
[4]; [10]
  Pigweed plant response rating: 100
[4]; [11]
  Plant response rating, Pigweed: 100
[4]; [12]
  Plant response rating, Pigweed: 100
Rice (Oryza sativa)
  Plant response rating, Rice (0 to 100 scale, 0 is no effect, 100 is complete control): 55
[5]
  Plant response rating, Barnyardgrass (0 to 100 scale, 0 is no effect, 100 is complete control): 75
[6]; [15]
  Plant response rating, Blackgrass: 5
[6]; [16]
  Plant response rating, Blackgrass: 15
[6]; [17]
  Plant response rating, Blackgrass: 35
[6]; [18]
  Plant response rating, Blackgrass: 50
[6]; [19]
  Plant response rating, Blackgrass: 80
[6]; [20]
  Plant response rating, Blackgrass: 90
[6]; [21]
  Plant response rating, Blackgrass: 95
[6]; [22]
  Plant response rating, Blackgrass: 95
[7]; [15]
  Plant response rating, Lambsquarters: 90
[7]; [16]
  Plant response rating, Lambsquarters: 90
[7]; [17]
  Plant response rating, Lambsquarters: 98
[7]; [23]
  Plant response rating, Lambsquarters: 98
[7]; [19]
  Plant response rating, Lambsquarters: 90
[7]; [20]
  Plant response rating, Lambsquarters: 90
[7]; [21]
  Plant response rating, Lambsquarters: 90
[7]; [22]
  Plant response rating, Lambsquarters: 90
[8]; [15]
  Plant response rating, Ragweed: 40
[8]; [16]
  Plant response rating, Ragweed: 60
[8]; [17]
  Plant response rating, Ragweed: 85
[8]; [23]
  Plant response rating, Ragweed: 95
[8]; [19]
  Plant response rating, Ragweed: 15
[8]; [20]
  Plant response rating, Ragweed: 15
[8]; [21]
  Plant response rating, Ragweed: 30
[8]; [22]
  Plant response rating, Ragweed: 65
Soybean (Glycine max); [15]
  Plant response rating, Soybean: 30
Soybean (Glycine max); [16]
  Plant response rating, Soybean: 30
Soybean (Glycine max); [17]
  Plant response rating, Soybean: 50
Soybean (Glycine max); [23]
  Plant response rating, Soybean: 55
Soybean (Glycine max); [19]
  Plant response rating, Soybean: 0
Soybean (Glycine max); [20]
  Plant response rating, Soybean: 5
Soybean (Glycine max); [21]
  Plant response rating, Soybean: 10
Soybean (Glycine max); [22]
  Plant response rating, Soybean: 30
